Patent publication US10336716B2, “Thermodynamically stable crystal modification of 2-methyl-N-(5-methyl-1, 3, 4-oxadiazol-2-yl)-3-(methylsulfonyl)-4-(trifluoromethyl)benzamide” (Bayer CropScience Aktiengesellschaft, priority 2015, dated 2019)

Legend:
Assay type in all cases: physicochemical
[1] = wettability on mixing with water (first comparative experiment)
Description: Moreover, the benzamide obtainable according to the disclosure of WO 2012/126932 A1 has the disadvantage that it can be less readily worked up, filtered, purified and wetted with solvents. […] These disadvantages are overcome by the provision of the thermodynamically stable benzamide according to the invention.

[2] = stability test: storage of oil dispersion; conditions: after several weeks of storage
[3] = testing in practice of suspension formulations; conditions: suspension formulation, benzamide finely ground in solid form
Description: The benzamide known for example from WO 2012/126932 A1 (example No. 2-145 in table 2 therein) has herbicidal properties and is suitable for the production of crop protection compositions which can be employed for weed control. However, it has been shown that the benzamide obtainable according to the disclosure of WO 2012/126932 A1 is not suitable for the preparation of user-friendly administration forms. User-friendly administration forms are, for example, suspension formulations in which the benzamide is present finely ground in solid form. […] The crystal growth can occur spontaneously or over a longer period and cannot be predicted.

Compound	wettability ([1]; after 1 minute on mixing with water) [%]	clumping and precipitation of oil dispersion on storage [2]	wettability with solvents (in words) ([1]; solvents such as water and aqueous solvents)	crystal growth in suspension formulations [3]
Cc1nnc(NC(=O)c2ccc(C(F)(F)F)c(S(C)(=O)=O)c2C)o1 [crystal modification A, 2-methyl-N-(5-methyl-1,3,4-oxadiazol-2-yl)-3-(methylsulfonyl)-4-(trifluoromethyl)benzamide]	100	no signs of clumping and precipitation	–	–
Cc1nnc(NC(=O)c2ccc(C(F)(F)F)c(S(C)(=O)=O)c2C)o1 [2-methyl-N-(5-methyl-1,3,4-oxadiazol-2-yl)-3-(methylsulfonyl)-4-(trifluoromethyl)benzamide]	–	–	poorer wettability	leads to crystal growth in suspension formulations and consequently to clumping and precipitation
